Laboratory results: the supplement of paper PMC10307832

Experiments:
AZ505 + Trametinib = compound: C1CCC(CC1)N(CCNCCC2=C3C(=C(C=C2)O)NC(=O)CO3)C(=O)CCNCCC4=CC(=C(C=C4)Cl)Cl [AZ505] + CC(=O)Nc1cccc(-n2c(=O)n(C3CC3)c(=O)c3c(Nc4ccc(I)cc4F)n(C)c(=O)c(C)c32)c1 [Trametinib] (partner 0.02 µM); test: relative viability (nuclei count vs DMSO), 5 days (fraction); higher = more cells survive
How it was run: (§1)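 Nuclei were stained with Hoechst during a one-step fixation (final 0.05% Triton X-100, 1% formaldehyde, 1 ug/ml Hoechst) carried out 5 days after dosing, then counted on 4× images. The cells, lung cancer lines in 1536-well plates, had been dosed by pin tool the day after seeding with one drug alone or a fixed anchor-drug dose plus five library-drug doses (not always all listed) in √10 steps. Relative viability is the nuclei count in treated wells divided by that in vehicle wells, and each value is the median of duplicate plates.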

Dactolisib + Dasatinib = compound: Cn1c(=O)n(-c2ccc(C(C)(C)C#N)cc2)c2c3cc(-c4cnc5ccccc5c4)ccc3ncc21 [Dactolisib] + Cc1nc(Nc2ncc(C(=O)Nc3c(C)cccc3Cl)s2)cc(N2CCN(CCO)CC2)n1 [Dasatinib] (partner 0.075 µM); test: as above
How it was run: as §1

Cell Line | relative viability (AZ505 + Trametinib; first compound 0.08 µM) | relative viability (AZ505 + Trametinib; first compound 0.253 µM) | relative viability (AZ505 + Trametinib; first compound 0.8 µM) | relative viability (AZ505 + Trametinib; first compound 2.53 µM) | relative viability (AZ505 + Trametinib; first compound 8 µM) | relative viability (Dactolisib + Dasatinib; first compound 0.002 µM) | relative viability (Dactolisib + Dasatinib; first compound 0.006325 µM) | relative viability (Dactolisib + Dasatinib; first compound 0.02 µM) | relative viability (Dactolisib + Dasatinib; first compound 0.06325 µM) | relative viability (Dactolisib + Dasatinib; first compound 0.2 µM)
HCC-44 | 1.03 | 1.09 | 1.02 | 1.05 | 1.1 | – | – | – | – | –
HCC-827 | 0.548 | 0.577 | 0.501 | 0.501 | 0.533 | 0.28 | 0.331 | 0.301 | 0.238 | 0.207
NCI-H1623 | – | – | – | – | – | 0.518 | 0.585 | 0.528 | 0.412 | 0.379
NCI-H2347 | 0.332 | 0.258 | 0.263 | 0.247 | 0.254 | 0.284 | 0.306 | 0.313 | 0.291 | 0.253
PC-14 | 0.711 | 0.884 | 0.76 | 0.747 | 0.786 | 0.312 | 0.285 | 0.264 | 0.0655 | 0.0441
NCI-H1651 | 0.814 | 0.863 | 0.834 | 0.817 | 0.829 | 0.388 | 0.435 | 0.318 | 0.238 | 0.177
HARA | 0.454 | – | 0.62 | 0.504 | 0.71 | 0.273 | 0.25 | 0.213 | 0.292 | 0.127
NCI-H1650 | 0.48 | 0.686 | 0.71 | 0.556 | 0.626 | 0.306 | 0.3 | 0.296 | 0.245 | 0.205
NCI-H1395 | 1.06 | – | 0.991 | 1.01 | 1.14 | 0.405 | 0.405 | 0.392 | 0.381 | 0.355
SK-LU-1 | 0.366 | 0.377 | 0.401 | 0.383 | 0.407 | 0.148 | 0.172 | 0.162 | 0.145 | 0.127
LU99A | 0.518 | 0.51 | 0.531 | – | 0.498 | 0.621 | 0.449 | 0.403 | 0.225 | 0.205
NCI-H1355 | 0.419 | 0.394 | 0.446 | 0.445 | 0.44 | 0.806 | 0.743 | 0.689 | 0.409 | 0.218
HCC-78 | – | – | 0.594 | 0.701 | 0.653 | 0.427 | 0.409 | 0.336 | 0.399 | 0.224
NCI-H1563 | – | – | – | – | – | 0.498 | 0.466 | 0.47 | 0.474 | 0.458
HCC-15 | 0.278 | 0.391 | 0.341 | 0.366 | 0.372 | 0.609 | 0.559 | 0.499 | 0.319 | 0.229
EKVX | – | 0.326 | 0.321 | 0.414 | 0.397 | 0.523 | 0.578 | 0.382 | 0.269 | 0.204
NCI-H2087 | 0.171 | 0.257 | 0.221 | 0.281 | 0.219 | 0.782 | 0.771 | 0.86 | 0.359 | 0.272
LK-2 | 0.661 | 0.687 | 0.718 | 0.865 | 0.865 | 0.279 | 0.322 | 0.31 | 0.182 | 0.144
